Reference: patent US5750754A, “Heterocyclic compounds” (Zeneca Limited, priority 1993, dated 1998)
Counter-ions that a name gives are not always drawn. Like-named read-outs stand apart in the source and are kept apart here.

How the values were obtained:
[1] = target: T1, human, citrated, platelet-rich plasma (Homo sapiens, UniProt P05106+P08514); experiment: Test (a): inhibition of ADP stimulated platelet aggregation (Born); format: cell-based; details: ADP induced aggregation of human platelet-rich plasma
T1 construct: aggregating human, citrated, platelet-rich plasma; endogenous in cells; host or cells: human platelets in citrated platelet-rich plasma
Method in brief: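 ADP added to human citrated platelet-rich plasma to build aggregation dose-response curves, repeated with increasing test compound (generally 10-^5 M to 10-^10 M). pA2 derived from the 50% response value for ADP with vs. without compound, averaged over several concentrations.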

[2] = target: T2, purified human platelet fibrinogen receptor (GPIIb/IIIa) (Homo sapiens, UniProt P05106+P08514); experiment: Test (b): GPIIb/IIIa ELISA, inhibition of biotinylated fibrinogen binding; details: purified human platelet GPIIb/IIIa, ELISA
T2 construct: is isolated from human platelet lysates; from tissue
Method in brief: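 GPIIb/IIIa affinity-purified from human platelet lysates was coated on plates, blocked, then incubated 2 h at 30 °C with biotinylated fibrinogen ([…]) plus compound. Bound fibrinogen detected via streptavidin/biotinylated HRP and TMB, OD at 650 nm; pIC50 for 50% binding inhibition.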

[3] = read-out: Test (a): pA2 value indicating potency of platelet aggregation inhibition (converted)
[4] = read-out: Test (b): pIC50 (-log(IC50)), 50% inhibition of biotinylated fibrinogen binding to GPIIb/IIIa (converted)
[5] = Test (a): pA2 value indicating potency of platelet aggregation inhibition
[6] = Test (b): pIC50 (-log(IC50)), 50% inhibition of biotinylated fibrinogen binding to GPIIb/IIIa

T2 sequence (P08514 32-887 limits assumed): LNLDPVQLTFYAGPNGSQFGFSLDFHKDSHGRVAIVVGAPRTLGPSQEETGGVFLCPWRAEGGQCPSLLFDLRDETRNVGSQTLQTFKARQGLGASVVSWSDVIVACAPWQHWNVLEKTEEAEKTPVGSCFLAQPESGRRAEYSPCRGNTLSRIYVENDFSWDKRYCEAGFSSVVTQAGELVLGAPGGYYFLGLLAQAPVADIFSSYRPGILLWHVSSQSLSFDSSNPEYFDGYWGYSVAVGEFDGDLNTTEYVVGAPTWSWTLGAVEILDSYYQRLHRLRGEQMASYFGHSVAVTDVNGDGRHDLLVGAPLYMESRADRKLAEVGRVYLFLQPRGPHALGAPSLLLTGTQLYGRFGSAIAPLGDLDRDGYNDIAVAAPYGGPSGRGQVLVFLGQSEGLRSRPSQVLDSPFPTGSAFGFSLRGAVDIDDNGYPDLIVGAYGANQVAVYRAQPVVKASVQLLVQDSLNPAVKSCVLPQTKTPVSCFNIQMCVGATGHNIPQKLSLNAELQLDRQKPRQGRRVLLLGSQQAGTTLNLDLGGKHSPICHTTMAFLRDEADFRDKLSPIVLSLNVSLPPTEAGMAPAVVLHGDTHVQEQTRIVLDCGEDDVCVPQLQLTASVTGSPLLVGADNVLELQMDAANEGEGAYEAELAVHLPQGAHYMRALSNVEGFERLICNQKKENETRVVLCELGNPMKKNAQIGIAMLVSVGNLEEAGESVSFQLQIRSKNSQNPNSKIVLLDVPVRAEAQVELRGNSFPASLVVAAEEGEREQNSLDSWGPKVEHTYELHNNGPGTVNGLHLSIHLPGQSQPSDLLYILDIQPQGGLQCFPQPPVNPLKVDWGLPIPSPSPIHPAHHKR
T2 sequence (P08514 891-1039 limits assumed): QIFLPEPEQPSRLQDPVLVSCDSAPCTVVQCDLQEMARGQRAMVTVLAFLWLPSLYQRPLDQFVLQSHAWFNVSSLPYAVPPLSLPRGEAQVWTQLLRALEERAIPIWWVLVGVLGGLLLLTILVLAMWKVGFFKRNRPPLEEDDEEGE
T2 sequence (P05106 27-788): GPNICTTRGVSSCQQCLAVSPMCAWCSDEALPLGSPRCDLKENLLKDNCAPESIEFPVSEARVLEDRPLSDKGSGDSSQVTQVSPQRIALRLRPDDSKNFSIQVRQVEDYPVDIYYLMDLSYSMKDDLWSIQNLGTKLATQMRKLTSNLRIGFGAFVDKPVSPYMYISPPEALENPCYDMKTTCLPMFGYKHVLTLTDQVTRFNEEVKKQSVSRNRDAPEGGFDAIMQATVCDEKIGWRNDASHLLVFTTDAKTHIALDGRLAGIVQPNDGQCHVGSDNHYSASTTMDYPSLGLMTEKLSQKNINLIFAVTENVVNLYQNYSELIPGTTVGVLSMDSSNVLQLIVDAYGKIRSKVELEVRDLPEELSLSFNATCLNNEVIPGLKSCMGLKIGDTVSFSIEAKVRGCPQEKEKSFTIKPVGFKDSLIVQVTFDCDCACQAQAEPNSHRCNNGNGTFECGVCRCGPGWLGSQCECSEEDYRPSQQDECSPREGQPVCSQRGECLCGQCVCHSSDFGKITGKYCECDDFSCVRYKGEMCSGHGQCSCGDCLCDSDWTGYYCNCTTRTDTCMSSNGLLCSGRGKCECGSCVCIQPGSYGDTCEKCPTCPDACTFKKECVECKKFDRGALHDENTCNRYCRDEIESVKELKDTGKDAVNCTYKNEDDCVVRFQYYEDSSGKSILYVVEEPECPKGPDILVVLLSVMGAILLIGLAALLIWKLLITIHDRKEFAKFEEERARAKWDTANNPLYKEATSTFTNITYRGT
T1 sequence (P08514 32-887 limits assumed): as the sequence (P08514 32-887 limits assumed) above
T1 sequence (P08514 891-1039 limits assumed): as the sequence (P08514 891-1039 limits assumed) above
T1 sequence (P05106 27-788): as the sequence (P05106 27-788) above

Kb [1, 3] [nM]	IC50 [2, 4] [nM]	SMILES	Kb [1, 5] [nM]	IC50 [2, 6] [nM]
316	1000	CCCc1cc(N2CCN(c3ccncc3)CC2)ccc1OCCCC(=O)OCC [Example 207, Ethyl 4-[2-n-propyl-4-[4-(4-pyridyl)piperazin-1-yl]phenoxy]butyrate]	–	–
> 100000	3980	CC(C)(C)c1cc(C(=O)CN2CCN(c3ccncc3)CC2)cc(C(C)(C)C)c1OCC(=O)O [Example 130, 4-[2-[4-(4-Pyridyl)piperazin-1-yl]acetyl]-2,6-di-tert-butylphenoxyacetic acid]	–	–
25100	251	O=C(O)C[C@H](NC(=O)CN1CCN(c2ccncc2)CC1)C(=O)N[C@@H](Cc1ccccc1)C(=O)O [Example 39, N-[N-[2-[4-(4-Pyridyl)piperazin-1-yl]acetal]-L-aspartyl]-L-phenylalanine]	–	–
31600	> 100000	CS(=O)(=O)NCCc1ccc(NC(=O)C2CCN(c3ccncc3)CC2)cc1 [Example 183, N-[2-[4-[1-(4-Pyridyl)piperidin-4-yl]carboxamidophenyl]ethyl]methanesulphonamide]	–	–
> 100000	25100	CN(C)c1ccncc1COc1ccc(OCCCC(=O)O)cc1 [Example 113, 4-[4-[(4-Dimethylaminopyrid-3-yl)methoxy]phenoxy]butanoic acid]	–	–
1580	316	O=C(O)COc1ccc(NC(=O)CC2CCN(c3ccncc3)CC2)cc1 [Example 166, 4-[2-[1-(4-Pyridyl)piperidin-4-yl]acetamido]phenoxyacetic acid dihydrochloride]	–	–
15800	200	CCCCS(=O)(=O)N[C@@H](Cc1ccc(OCCCC2CCN(c3ccncc3)CC2)cc1)C(=O)OC [Example 81, Methyl 2-S-(n-butylsulphonylamino)-3-[4-[3-[1-(4-pyridyl)piperidin-4-yl]propoxy]phenyl]propionate]	–	–
3160	5010	O=C(COc1ccc(C(=O)CN2CCN(c3ccncc3)CC2)cc1)NCc1ccccc1 [Example 145, 2-[4-[2-[4-(4-Pyridyl)piperazin-1-yl]acetyl]phenoxy]-N-(phenylmethyl)-acetamide]	–	–
63.1	25.1	COc1cc(C(=O)CN2CCN(c3ccncc3)CC2)ccc1OCC(=O)O [Example 6, 4-[2-[4-(4-Pyridyl)piperazin-1-yl]acetyl]-2-methoxyphenoxyacetic acid]	–	–
6310	> 100000	Cc1ccc(S(=O)(=O)NCc2ccc(NC(=O)C3CCN(c4ccncc4)CC3)cc2)cc1 [Example 171, N-[4[4-[1-(4-Pyridyl)piperidin-4yl]carboxyamidophenyl]methyl]-4-methylphenylsulphonamide]	–	–
31.6	200	COC(=O)COc1ccc(C(=O)CN2CCN(c3ccncc3)CC2=O)cc1 [Example 61, Methyl 4-[2-[4-(4-pyridyl)piperazin-2-one-1-yl]acetyl]phenoxyacetate]	–	–
–	–	COC(=O)COc1ccc(C(=O)C(C)N2CCN(c3ccncc3)CC2)cc1 (racemic) [Example 16, (RS) Methyl 4-[2-[4-(4-pyridyl)piperazin-1-yl]-2-methylacetyl]phenoxyacetate]	158	200
–	–	CC(C(=O)c1ccc(OCC(=O)O)cc1)N1CCN(c2ccncc2)CC1 (racemic) [Example 17, RS 4-[2-[4-(4-Pyridyl)piperazin-1-yl]2-methylacetyl]phenoxyacetic acid sodium chloride adduct dihydrate]	39.8	20
2000	251	CCCCS(=O)(=O)NC(Cc1ccc(C(=O)CN2CCN(c3ccncc3)CC2)cc1)C(=O)OC (racemic) [Example 66, Methyl 2-RS-(n-butylsulphonylamino)-3-[4-[2-[4-(4-pyridyl)piperazin-1-yl]acetyl]phenyl]propionate]	–	–
3160	1000	COC(=O)CCCc1ccc(CN2CCN(c3ccncc3)CC2)cc1 [Example 178, Methyl 4-[4-[4-(4-pyridyl)piperazin-1-yl]methylphenyl]butyrate]	–	–
3980	251	COC(=O)CC(NS(=O)(=O)c1ccc(C)cc1)c1ccc(OCC2CCN(c3ccncc3)CC2)cc1 (stereo not drawn) [Example 99, Methyl 3-(4-methylphenylsulphonylamino)-3-[4-[1-(4-pyridyl)piperidin-4-yl]methoxyphenyl]propionate]	–	–
316	12.6	CCCCS(=O)(=O)NC(Cc1ccc(CN2CCN(c3ccncc3)CC2)cc1)C(=O)O (racemic) [Example 68, 2-RS-(n-Butylsulphonylamino)-3-[4-(4-pyridyl)piperazin-1-ylmethylene]phenylpropionic acid]	–	–
79.4	15.8	O=C(O)CCNC(=O)c1ccc(N2CCN(c3ccncc3)CC2)nc1 [Example 70, 3-[6-[4-(4-Pyridyl)piperazin-1-yl]pyrid-3-ylcarboxamido]propionic acid]	–	–

Kb [1, 3] [nM]	IC50 [2, 4] [nM]	SMILES	Kb [1, 5] [nM]	IC50 [2, 6] [nM]
1000	1000	COC(=O)COc1ccc(C(=O)CN2CCN(c3ccncc3)CC2)cc1OC [Example 5, Methyl 4-[2-[4-(4-pyridyl)piperazin-1-yl]acetyl]-2-methoxyphenoxyacetate]	–	–
1580	79400	COC(=O)COc1ccc(C(=O)C(C)CN2CCN(c3ccncc3)CC2)cc1 (racemic) [Example 177, RS Methyl 4-[3-[4-(4-pyridyl)piperazin-1-yl]-2-methylpropanoyl]-phenoxyacetate]	–	–
251	10	C=CCc1cc(N2CCN(c3ccncc3)CC2)ccc1OCCCC(=O)O [Example 206]	–	–
2000	1580	O=C(O)CC1(O)CCC(N2CCN(c3ccncc3)CC2)CC1 (stereo not drawn) [Example 102, cis-1-Hydroxy-4[4-(4-pyridyl)piperazin-1-yl]cyclohexaneacetic acid]	–	–
> 100000	251	O=C(O)C[C@H](NC(=O)c1ccc(N2CCN(c3ccncc3)CC2)cc1)C(=O)NCCc1ccccc1 [Example 192, (S)-3-[N-[2-Phenenthyl]carboxamido]-3-[4-[4-(4-pyridyl)piperazin-1-yl]]-benzamidopropionic acid]	–	–
6310	200	O=C(O)C1CCCN(C(=O)c2ccc(N3CCN(c4ccncc4)CC3)cc2)C1 (stereo not drawn) [Example 235, 4-[(4-Pyridyl)piperazin-1-yl]benzoylnipecotic acid]	–	–
3980	> 100000	CCCCS(=O)(=O)NCC1CCN(C(=O)CN2CCN(c3ccncc3)CC2)CC1 [Example 115, N-[1-[2-[4-(4-Pyridiyl)piperazin-1-yl]acetyl]piperidin-4-ylmethyl]-1-butanesulphonamide]	–	–
10000	> 100000	CCOC(=O)CCCCOc1cccc(N2CCN(c3ccncc3)CC2)c1 [Example 228, Ethyl 3-[4-(4-pyridyl)piperazin-1-yl]phenoxypentanoate]	–	–
79.4	3.98	CCCCS(=O)(=O)N[C@@H](Cc1ccc(OCCCN(C)c2ccncc2)cc1)C(=O)O [Example 96]	–	–
1.26	0.794	O=C(O)COc1ccc(C(=O)CN2CCN(c3ccncc3)CC2)cc1OCC(=O)O [Example 4, 2,2'-[4-[2-[4-(4-Pyridyl)piperazin-1-yl]acetyl]phenylene-1,2-dioxy]diaceticacid]	–	–
12.6 to 100	3.98 to 25.1	O=C(O)CCCOc1ccc(N2CCN(c3ccncc3)CC2)cc1 [Example 51, 4-[4-[4-(4-Pyridyl)piperazin-1-yl]phenoxy]butyric acid]	–	–
1260	200	COC(=O)COc1ccc(C(=O)CC2CCN(c3ccncc3)CC2)cc1 [Example 173, Methyl 4-[2-[1-(4-pyridyl)piperidin-4-yl]acetyl]phenoxyacetate]	–	–
2.51 to 12.6	7.94	O=C(O)COc1ccc(C(=O)CN2CCN(c3ccncc3)CC2=O)cc1 [Example 62, 4-[2-[4-(4-Pyridyl)piperazin-2-one-1-yl]acetyl]phenoxyacetic acid]	–	–
15800	50100	COC(=O)COc1ccc(C(=O)CN2CCN(c3cc(C)nc(C)c3)CC2)cc1 [Example 153, Methyl [2-[4-(2,6-dimethylpyrid-4-yl)piperazin-1-yl]acetyl]phenoxyacetate, hydrobromide]	–	–
2510	2000	Cc1ccc(S(=O)(=O)Nc2ccc(C(=O)CN3CCN(c4ccncc4)CC3)cc2)cc1 [Example 19, N-[4-[2-[4-(4-Pyridyl)piperazin-1-yl]acetyl]phenyl-4-methylphenyl]-sulphonamide]	–	–
6310	2510	CCn1cc(C(=O)O)c(=O)c2ccc(N3CCN(c4ccncc4)CC3)cc21 [Example 65, Ethyl-4-[4-(4-pyridyl)piperazin-1-yl]-4-quinolon-3-ylcarboxylic acid]	–	–
6310	39800	COC(=O)COc1ccc(C(=O)CN2CCN(c3ccncn3)CC2)cc1 [Example 47, Methyl 4-[2-[4-(4-pyrimidinyl)piperazin-1-yl]acetyl]phenoxyacetate]	–	–

SMILES	Kb [1, 3] [nM]	IC50 [2, 4] [nM]	Kb [1, 5] [nM]	IC50 [2, 6] [nM]
CCCCS(=O)(=O)N[C@@H](Cc1ccc(OCCCCC2CCN(c3ccncc3)CC2)cc1)C(=O)OC [Example 83, Methyl 2-S-(butylsulphonylamino)-3-[4-[4-[1-(4-pyridyl)piperidin-4-yl]-butoxy]phenyl]propionate]	39800	2000	–	–
